# Laboratory results taken from ChEMBL document CHEMBL4699612, “Discovery of thiosemicarbazone-containing compounds with potent anti-proliferation activity against drug-resistant K562/A02 cells” (Bioorg Med Chem Lett, 2020).
# Calls of active or inactive are those of the source. The rule behind the calls is not given here.
# How the values were obtained:
# K562 [1] = assay: Antiproliferative activity against human K562 cells by MTT assay; assay type: functional, cell-based
# K562/A02 [2] = assay: Antiproliferative activity against human K562/A02 cells overexpressing P-gp by MTT assay; assay type: functional, cell-based
# [3] = Resistance index, ratio of IC50 for human K562/A02 cells to IC50 for human K562 cells; assay type: functional; design: reference not given here
# K562/A02 [4] = assay: Induction of ROS generation in human K562/A02 cells at 3 uM in presence of ROS scavenger, NAC by DCFHA-DA based assay; assay type: functional, cell-based
# K562/A02 [5] = assay: Induction of apoptosis in human K562/A02 cells assessed as necrotic cells at 1 uM incubated for 48 hrs by annexin V and propidium iodide staining based flow cytometry (reference value: 4.81 %); assay type: functional
# K562/A02 [6] = assay: Induction of apoptosis in human K562/A02 cells assessed as viable cells at 1 uM incubated for 48 hrs by annexin V and propidium iodide staining based flow cytometry (reference value: 92.94 %); assay type: functional; conditions: read-out: Activity
# K562/A02 [7] = assay: Up regulation of acetylated histone H3 expression level in human K562/A02 cells at 1 to 3 uM measured after 48 hrs by Western blot analysis; assay type: functional, cell-based; conditions: dose microM 1-3, time 48.0 hrs
# K562/A02 [8] = assay: Induction of apoptosis in human K562/A02 cells assessed as early apoptotic cells at 3 uM incubated for 48 hrs by annexin V and propidium iodide staining based flow cytometry (reference value: 1.42 %); assay type: functional
# K562/A02 [9] = assay: Induction of apoptosis in human K562/A02 cells assessed as necrotic cells at 3 uM incubated for 48 hrs by annexin V and propidium iodide staining based flow cytometry (reference value: 4.81 %); assay type: functional
# Histone deacetylase 1 = Histone deacetylase 1 (Homo sapiens, UniProt Q13547); assay: Inhibition of recombinant human HDAC1 using Boc-Lys(Ac)-AMC as substrate incubated for 60 mins by fluorimetric assay
# Chain of Histone deacetylase 1 (Q13547 whole entry): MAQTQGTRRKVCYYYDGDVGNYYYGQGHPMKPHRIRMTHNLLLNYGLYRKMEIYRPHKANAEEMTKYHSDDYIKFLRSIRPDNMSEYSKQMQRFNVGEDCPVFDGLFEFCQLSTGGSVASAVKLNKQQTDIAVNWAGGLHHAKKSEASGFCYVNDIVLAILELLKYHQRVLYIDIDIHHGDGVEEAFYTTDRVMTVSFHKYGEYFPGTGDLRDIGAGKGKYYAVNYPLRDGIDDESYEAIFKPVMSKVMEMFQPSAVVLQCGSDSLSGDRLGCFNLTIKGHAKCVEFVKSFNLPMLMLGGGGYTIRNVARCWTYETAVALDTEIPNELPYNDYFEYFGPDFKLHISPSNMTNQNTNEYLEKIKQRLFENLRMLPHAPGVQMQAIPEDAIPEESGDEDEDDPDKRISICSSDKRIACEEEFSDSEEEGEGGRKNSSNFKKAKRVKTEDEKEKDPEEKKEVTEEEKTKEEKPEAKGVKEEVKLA
# K562/A02 [10] = assay: Induction of apoptosis in human K562/A02 cells assessed as early apoptotic cells at 1 uM incubated for 48 hrs by annexin V and propidium iodide staining based flow cytometry (reference value: 1.42 %); assay type: functional
# K562/A02 [11] = assay: Induction of apoptosis in human K562/A02 cells assessed as late apoptotic cells at 3 uM incubated for 48 hrs by annexin V and propidium iodide staining based flow cytometry (reference value: 0.83 %); assay type: functional
# K562/A02 [12] = assay: Induction of apoptosis in human K562/A02 cells assessed as late apoptotic cells at 1 uM incubated for 48 hrs by annexin V and propidium iodide staining based flow cytometry (reference value: 0.83 %); assay type: functional
# K562 [13] = assay: Induction of ROS generation in human K562 cells at 1 to 3 uM by DCFHA-DA based assay; assay type: functional, cell-based; conditions: dose microM 1-3
# K562/A02 [14] = assay: Effect on P-gp activity in human K562/A02 cells; assay type: cell-based; conditions: filed as modulator
# K562/A02 [15] = assay: Induction of apoptosis in human K562/A02 cells assessed as viable cells at 3 uM incubated for 48 hrs by annexin V and propidium iodide staining based flow cytometry (reference value: 92.94 %); assay type: functional; conditions: read-out: Activity
# K562/A02 [16] = assay: Up regulation of acetylated histone H4 expression level in human K562/A02 cells at 1 to 3 uM measured after 48 hrs by Western blot analysis; assay type: functional, cell-based; conditions: dose microM 1-3, time 48.0 hrs
# [17] = biological target: T1, Protein deacetylase HDAC6 (Homo sapiens, UniProt Q9UBN7); assay: Inhibition of recombinant human HDAC6 using Boc-Lys(Ac)-AMC as substrate incubated for 60 mins by fluorimetric assay
# T1 sequence (Q9UBN7 whole entry): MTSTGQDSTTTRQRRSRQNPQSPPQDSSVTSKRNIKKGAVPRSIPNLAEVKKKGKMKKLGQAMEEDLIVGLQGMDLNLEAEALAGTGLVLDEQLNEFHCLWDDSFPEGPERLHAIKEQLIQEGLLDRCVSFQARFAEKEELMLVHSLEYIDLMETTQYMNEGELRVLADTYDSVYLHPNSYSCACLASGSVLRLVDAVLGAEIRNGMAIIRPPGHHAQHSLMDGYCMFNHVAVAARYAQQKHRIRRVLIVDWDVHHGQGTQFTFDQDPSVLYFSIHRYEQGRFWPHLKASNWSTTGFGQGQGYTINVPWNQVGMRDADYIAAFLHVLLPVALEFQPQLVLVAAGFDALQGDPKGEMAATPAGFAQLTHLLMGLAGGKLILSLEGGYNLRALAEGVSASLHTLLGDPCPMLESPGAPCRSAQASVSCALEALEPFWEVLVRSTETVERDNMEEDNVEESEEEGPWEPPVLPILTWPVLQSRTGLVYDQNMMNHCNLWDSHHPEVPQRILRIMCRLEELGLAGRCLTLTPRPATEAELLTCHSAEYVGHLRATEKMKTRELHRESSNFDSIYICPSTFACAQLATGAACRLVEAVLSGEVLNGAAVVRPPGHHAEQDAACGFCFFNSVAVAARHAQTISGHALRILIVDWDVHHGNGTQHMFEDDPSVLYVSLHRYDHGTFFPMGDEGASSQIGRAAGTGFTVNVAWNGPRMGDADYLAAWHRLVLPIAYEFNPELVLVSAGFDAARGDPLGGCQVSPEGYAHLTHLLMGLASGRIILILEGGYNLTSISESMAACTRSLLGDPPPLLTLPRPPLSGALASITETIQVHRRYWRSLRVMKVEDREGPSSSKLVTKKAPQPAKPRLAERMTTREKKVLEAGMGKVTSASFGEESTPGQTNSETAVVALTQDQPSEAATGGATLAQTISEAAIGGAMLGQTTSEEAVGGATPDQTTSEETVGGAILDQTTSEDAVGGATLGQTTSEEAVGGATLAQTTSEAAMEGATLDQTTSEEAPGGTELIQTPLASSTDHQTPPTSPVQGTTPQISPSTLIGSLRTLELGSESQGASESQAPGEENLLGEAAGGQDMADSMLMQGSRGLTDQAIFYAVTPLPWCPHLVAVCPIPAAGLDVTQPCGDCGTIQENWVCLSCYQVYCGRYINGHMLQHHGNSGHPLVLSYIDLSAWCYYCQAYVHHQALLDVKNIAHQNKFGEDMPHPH
# K562/A02 [18] = assay: Induction of apoptosis in human K562/A02 cells assessed as increase in Bax expression incubated for 48 hrs by Western blot analysis; assay type: functional, cell-based; conditions: dose microM 1-3, time 48.0 hrs
# K562/A02 [19] = assay: Effect on P-gp expression in human K562/A02 cells overexpressing P-gp; assay type: functional, cell-based
# K562/A02 [20] = assay: Induction of apoptosis in human K562/A02 cells assessed as increase in cleaved caspase 3 expression incubated for 48 hrs by Western blot analysis; assay type: functional, cell-based; conditions: dose microM 1-3, time 48.0 hrs
# K562/A02 [21] = assay: Induction of apoptosis in human K562/A02 cells assessed as decrease in Bcl2 expression incubated for 48 hrs by Western blot analysis; assay type: functional, cell-based; conditions: dose microM 1-3, time 48.0 hrs
# K562/A02 [22] = assay: Induction of ROS generation in human K562/A02 cells by DCFHA-DA based assay; assay type: functional, cell-based; conditions: dose microM 1-3
# Histone deacetylase 8 = biological target: T2, Histone deacetylase 8 (Homo sapiens, UniProt Q9BY41); assay: Inhibition of recombinant human HDAC8 using Boc-Lys(Ac)-AMC as substrate incubated for 60 mins by fluorimetric assay
# T2 sequence (Q9BY41 whole entry): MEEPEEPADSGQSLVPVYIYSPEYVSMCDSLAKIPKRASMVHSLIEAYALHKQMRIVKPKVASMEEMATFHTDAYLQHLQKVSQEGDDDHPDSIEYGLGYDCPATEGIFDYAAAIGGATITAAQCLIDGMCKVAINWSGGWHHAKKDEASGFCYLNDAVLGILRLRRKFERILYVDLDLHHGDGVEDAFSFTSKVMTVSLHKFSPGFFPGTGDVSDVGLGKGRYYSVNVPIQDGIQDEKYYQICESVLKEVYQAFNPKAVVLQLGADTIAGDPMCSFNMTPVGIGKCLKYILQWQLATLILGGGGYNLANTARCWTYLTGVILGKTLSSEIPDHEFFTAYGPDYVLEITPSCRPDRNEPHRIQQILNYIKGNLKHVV
# K562/A02 [23] = assay: Cytotoxicity against human K562/A02 cells at 3 uM incubated for 24 hrs in presence of ROS scavenger, NAC by MTT assay; assay type: functional, cell-based
# K562/A02 [24] = assay: Induction of apoptosis in human K562/A02 cells assessed as increase in cleaved PARP expression incubated for 48 hrs by Western blot analysis; assay type: functional, cell-based; conditions: dose microM 1-3, time 48.0 hrs
compound,measurement,setting,value
C/C(=N\NC(=S)NCCCC(=O)NO)c1cccc([N+](=O)[O-])c1,IC50,K562 [1],> 10000 nM
same,IC50,K562/A02 [2],> 10000 nM
O=C(CCCCCNC(=S)N/N=C(\c1ccccc1)c1ccccc1F)NO,Ratio IC50,[3],1.3
same,IC50,K562 [1],4630 nM
same,IC50,K562/A02 [2],6010 nM
Cc1ccc(NC(=O)c2ccc(CN3CCN(C)CC3)cc2)cc1Nc1nccc(-c2cccnc2)n1 [IMATINIB],Ratio IC50,[3],1.61
same,IC50,K562 [1],610 nM
same,IC50,K562/A02 [2],980 nM
COc1cccc2c1C(=O)c1c(O)c3c(c(O)c1C2=O)C[C@@](O)(C(=O)CO)C[C@@H]3O[C@H]1C[C@H](N)[C@H](O)[C@H](C)O1.Cl [DOXORUBICIN HYDROCHLORIDE],Ratio IC50,[3],28.21
same,IC50,K562 [1],830 nM
same,IC50,K562/A02 [2],23400 nM
COc1ccccc1/C(C)=N/NC(=S)NCCCC(=O)NO,IC50,K562 [1],> 10000 nM
same,IC50,K562/A02 [2],> 10000 nM
C/C(=N\NC(=S)NCCCCCC(=O)NO)c1ccc(Br)cc1,Activity,K562/A02 [4],inactive
same,Activity,K562/A02 [5],4.4%
same,viability at 1 µM,K562/A02 [6],27.2%
same,Activity,K562/A02 [7],Active
same,Activity,K562/A02 [8],22.28%
same,Activity,K562/A02 [9],5.18%
same,IC50,Histone deacetylase 1,38.6 nM
same,Activity,K562/A02 [10],16.35%
same,Activity,K562/A02 [11],53.69%
same,Activity,K562/A02 [12],52%
same,Activity,K562 [13],inactive
same,Activity,K562/A02 [14],Active
same,Ratio IC50,[3],0.46
same,viability at 3 µM,K562/A02 [15],18.9%
same,Activity,K562/A02 [16],Active
same,IC50,[17],34.6 nM
same,Activity,K562/A02 [18],Dose-dependent effect
same,Activity,K562/A02 [19],Active
same,IC50,K562 [1],960 nM
same,Activity,K562/A02 [20],Dose-dependent effect
same,Activity,K562/A02 [21],Dose-dependent effect
same,Activity,K562/A02 [22],Dose-dependent effect
same,IC50,Histone deacetylase 8,> 5000 nM
same,Activity,K562/A02 [23],inactive
same,Activity,K562/A02 [24],Dose-dependent effect
same,IC50,K562/A02 [2],440 nM
O=C(CCCCCNC(=S)N/N=C(\c1ccccc1)c1cccc([N+](=O)[O-])c1)NO,IC50,Histone deacetylase 1,71.1 nM
same,Ratio IC50,[3],0.58
same,IC50,[17],46.8 nM
same,IC50,K562 [1],1630 nM
same,IC50,Histone deacetylase 8,> 5000 nM
same,IC50,K562/A02 [2],940 nM
O=C(CCCCCNC(=S)NN=C(c1ccccc1)c1ccccc1)NO,Ratio IC50,[3],0.96
same,IC50,K562 [1],3810 nM
same,IC50,K562/A02 [2],3640 nM
COc1cccc(/C(C)=N/NC(=S)NCCCCCC(=O)NO)c1,Ratio IC50,[3],0.98
same,IC50,K562 [1],1910 nM
same,IC50,K562/A02 [2],1890 nM
C/C(=N\NC(=S)NCCCCCC(=O)NO)c1cccc(Br)c1,IC50,Histone deacetylase 1,54.6 nM
same,Ratio IC50,[3],0.41
same,IC50,[17],37.7 nM
same,IC50,K562 [1],1260 nM
same,IC50,Histone deacetylase 8,> 5000 nM
same,IC50,K562/A02 [2],520 nM
O=C(CCCCCNC(=S)NN=C(c1ccccn1)c1ccccn1)NO,Ratio IC50,[3],0.76
same,IC50,K562 [1],2870 nM
same,IC50,K562/A02 [2],2180 nM
Cc1ccc(/C(=N/NC(=S)NCCCCCC(=O)NO)c2ccccc2)cc1,Ratio IC50,[3],0.73
same,IC50,K562 [1],4340 nM
same,IC50,K562/A02 [2],3150 nM
